Results published in article PMC7949142, “NAD(H) phosphates mediate tetramer assembly of human C-terminal binding protein (CtBP)” (The Journal of Biological Chemistry, 2021).

Columns and labels:
Type in all cases: binding
[1] = target: T1, CtBP2 (Homo sapiens, UniProt P56545); assay: SEC-MALS tetramer assembly, concentration dependence
T1 construct: 31–445

[2] = target: T2, CtBP1 (Homo sapiens, UniProt Q13363); assay: as above; design: 28–440
[3] = target: T2, CtBP1; assay: SEC-MALS tetramer assembly; design: 28–375 (crystal); 28–440 (SEC-MALS)

Structure (SMILES) | EC50 [1] | EC50 [2] | EC50 [3]
Nc1ncnc2c1ncn2[C@@H]1O[C@H](COP(=O)(O)OP(=O)(O)O)[C@@H](O)[C@H]1O [ADP] | ~43 µM | ~52 µM | 
Nc1ncnc2c1ncn2[C@@H]1O[C@H](COP(=O)(O)O)[C@@H](O)[C@H]1O [AMP] |  |  | ~66 µM
